The test system of this assay is P388 leukemia ip, CD2F1 mice, survival T/C. The experiment in a line: NCI In Vivo Anticancer Drug Screen. Data for tumor model P388 Leukemia (intraperitoneal) in CD2F1 (CDF1) mice. As to conditions: endpoint: median survival time, higher = longer survival. The procedure, abridged: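 Mice carrying the transplanted tumor received test compound or vehicle. Survival was recorded in each group, and the value is the treated-group measurement divided by that of the vehicle-treated control group.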

Setting [1] is: dose: 100.0 mg/kg/injection, schedule: Q01DX005 (ip), vehicle: saline.
The mark [2] stands for this setting: dose: 200.0 mg/kg/injection, schedule: Q01DX005 (ip), vehicle: saline.
The mark [3] stands for this setting: dose: 100.0 mg/kg/injection, schedule: Q04DX003 (ip), vehicle: saline with Tween-80.
The mark [4] stands for this setting: dose: 400.0 mg/kg/injection, schedule: Q04DX003 (ip), vehicle: saline with Tween-80.
[5] abbreviates: dose: 100.0 mg/kg/injection, schedule: Q01DX001 (ip), vehicle: saline with Tween-80.
The mark [6] stands for this setting: dose: 200.0 mg/kg/injection, schedule: Q01DX001 (ip), vehicle: saline with Tween-80.
Where [7] appears, read: dose: 12.5 mg/kg/injection, schedule: Q01DX009 (ip), vehicle: Klucel (hydroxypropylcellulose) (HPC).
Setting [8] is: dose: 25.0 mg/kg/injection, schedule: Q01DX009 (ip), vehicle: Klucel (hydroxypropylcellulose) (HPC).
[9] abbreviates: dose: 50.0 mg/kg/injection, schedule: Q01DX005 (ip), vehicle: saline with Tween-80.
[10] abbreviates: dose: 100.0 mg/kg/injection, schedule: Q01DX005 (ip), vehicle: saline with Tween-80.
The mark [11] stands for this setting: dose: 200.0 mg/kg/injection, schedule: Q01DX005 (ip), vehicle: saline with Tween-80.
Where [12] appears, read: dose: 100.0 mg/kg/injection, schedule: Q01DX005 (ip), vehicle: Klucel (hydroxypropylcellulose) (HPC).
Where [13] appears, read: dose: 6.25 mg/kg/injection, schedule: Q01DX009 (ip), vehicle: Klucel (hydroxypropylcellulose) (HPC).
Setting [14] is: dose: 50.0 mg/kg/injection, schedule: Q01DX009 (ip), vehicle: Klucel (hydroxypropylcellulose) (HPC).

“And” between values parts separate entries of the source, which are not always exact repeats. Equal values may be shown once. Inconclusive results and toxic doses are left out.

For the compound `Cc1c(O)c(O)cc[n+]1C1OC(CO)C(O)C1O` (configuration not stated), the T/C under setting [1] was 98 % of control; the T/C under setting [2] was 100 % of control; the T/C (dose: 400.0 mg/kg/injection, schedule: Q01DX005 (ip), vehicle: saline) is 102 % of control.
Regarding `Cc1cc(=O)[nH]c(Nc2ccccc2)n1`, the T/C reads like this: under setting [3], 100 % of control; (dose: 200.0 mg/kg/injection, schedule: Q04DX003 (ip), vehicle: saline with Tween-80) 90 % of control; under setting [4], 100 % of control.
`Cc1nc(N)[nH]c(=O)c1CCc1ccccc1`: the T/C (dose: 60.0 mg/kg/injection, schedule: Q01DX005 (ip), vehicle: saline) was 97 % of control; the T/C (dose: 120.0 mg/kg/injection, schedule: Q01DX005 (ip), vehicle: saline) is 99 % of control; the T/C (dose: 240.0 mg/kg/injection, schedule: Q01DX005 (ip), vehicle: saline) is 98 % of control.
`CCC(c1ccc(OC)cc1)C(NCC(=O)N/N=C1/C=C2CC[C@H]3[C@@H]4CC[C@H](O)[C@@]4(C)CC[C@@H]3[C@@]2(C)CC1)c1ccc(OC)cc1` (some centres not stated): the T/C under setting [5] is 100 % of control; the T/C under setting [6] was 110 % of control; the T/C (dose: 400.0 mg/kg/injection, schedule: Q01DX001 (ip), vehicle: saline with Tween-80) is 107 % of control.
Consider `N#C/C(=C/c1ccco1)c1ccccc1`, for which the T/C runs as follows: under setting [7], 95 % of control; under setting [8], 88 % of control.
As to `COc1ccccc1NC(=O)C1=C(C)NC(C)=C(C(=O)Nc2ccccc2OC)C1c1cccc([N+](=O)[O-])c1`, the T/C by setting is: (dose: 60.0 mg/kg/injection, schedule: Q01DX005 (ip), vehicle: Klucel (hydroxypropylcellulose) (HPC)) 92 % of control; (dose: 120.0 mg/kg/injection, schedule: Q01DX005 (ip), vehicle: Klucel (hydroxypropylcellulose) (HPC)) 88 % of control.
Regarding `O=C1NC(O)c2cccc([N+](=O)[O-])c2O1` (configuration not stated), the T/C is 100 % of control under setting [9], 105 % of control under setting [10] and 110 % of control under setting [11].
As for `CSCCC(NC(=O)C(Cc1c[nH]c2ccccc12)NC(=O)CCNC(=O)OC(C)(C)C)C(=O)NC(CC(=O)O)C(=O)NC(Cc1ccccc1)C(N)=O` (configuration not stated), the T/C runs as follows: (dose: 50.0 mg/kg/injection, schedule: Q01DX005 (ip), vehicle: Klucel (hydroxypropylcellulose) (HPC)) 98 % of control; under setting [12], 100 % of control; (dose: 200.0 mg/kg/injection, schedule: Q01DX005 (ip), vehicle: Klucel (hydroxypropylcellulose) (HPC)) 97 % of control.
For the compound `COc1cc2c(cc1OC)C(=O)c1nccc3ccc(OC)c(c13)O2`, the T/C (dose: 6.75 mg/kg/injection, schedule: Q01DX005 (ip), vehicle: Klucel (hydroxypropylcellulose) (HPC)) was 100 % of control; the T/C (dose: 13.5 mg/kg/injection, schedule: Q01DX005 (ip), vehicle: Klucel (hydroxypropylcellulose) (HPC)) was 92 % of control; the T/C (dose: 27.0 mg/kg/injection, schedule: Q01DX005 (ip), vehicle: Klucel (hydroxypropylcellulose) (HPC)) is 101 % of control; the T/C (dose: 54.0 mg/kg/injection, schedule: Q01DX005 (ip), vehicle: Klucel (hydroxypropylcellulose) (HPC)) is 92 % of control.
As for `CC1(C)CC(OP(=S)(N2CC2)N2CC2)CC(C)(C)N1O`, the T/C is 160 % of control (dose: 100.0 mg/kg/injection, schedule: Q01DX001 (ip), vehicle: Klucel (hydroxypropylcellulose) (HPC)) and 187 % of control (dose: 400.0 mg/kg/injection, schedule: Q01DX001 (ip), vehicle: Klucel (hydroxypropylcellulose) (HPC)).
For the compound `CC(=O)ON1C(=O)C=CC1=O`, the T/C was 109 % of control (dose: 0.78 mg/kg/injection, schedule: Q01DX009 (ip), vehicle: water); 101 % of control (dose: 1.56 mg/kg/injection, schedule: Q01DX009 (ip), vehicle: water); 104 % of control and 87 % of control (dose: 3.13 mg/kg/injection, schedule: Q01DX009 (ip), vehicle: water); 104 % of control and 86 % of control (dose: 6.25 mg/kg/injection, schedule: Q01DX009 (ip), vehicle: water); 109 % of control and 90 % of control (dose: 12.5 mg/kg/injection, schedule: Q01DX009 (ip), vehicle: water).
As for `O=C(c1ccccc1)C(C(=O)c1ccccc1)C(c1ccccc1)(c1ccccc1)c1ccccc1`, the T/C reads like this: (dose: 12.5 mg/kg/injection, schedule: Q04DX003 (ip), vehicle: saline with Tween-80) 97 % of control; (dose: 25.0 mg/kg/injection, schedule: Q04DX003 (ip), vehicle: saline with Tween-80) 99 % of control and 98 % of control; (dose: 50.0 mg/kg/injection, schedule: Q04DX003 (ip), vehicle: saline with Tween-80) 87 % of control; under setting [3], 90 % of control and 91 % of control; under setting [4], 88 % of control.
In the case of `NC(=O)c1cc2c(oc1=O)-c1ccccc1N(C=O)C2`, the T/C is 100 % of control (dose: 60.0 mg/kg/injection, schedule: Q01DX005 (ip), vehicle: saline with Tween-80); 95 % of control (dose: 120.0 mg/kg/injection, schedule: Q01DX005 (ip), vehicle: saline with Tween-80); 95 % of control (dose: 240.0 mg/kg/injection, schedule: Q01DX005 (ip), vehicle: saline with Tween-80).
Turning to `c1cc2cc3c(cc2[nH]1)OCO3`, the T/C (dose: 50.0 mg/kg/injection, schedule: Q01DX005 (ip), vehicle: Klucel + Tween-80) is 95 % of control; the T/C (dose: 100.0 mg/kg/injection, schedule: Q01DX005 (ip), vehicle: Klucel + Tween-80) was 90 % of control; the T/C (dose: 200.0 mg/kg/injection, schedule: Q01DX005 (ip), vehicle: Klucel + Tween-80) is 95 % of control.
Turning to `CCCCCCC(/C=C/c1ccccc1)=N\O`, the T/C reads like this: under setting [13], 107 % of control; under setting [7], 102 % of control; under setting [8], 103 % of control and 104 % of control; under setting [14], 108 % of control and 112 % of control; (dose: 100.0 mg/kg/injection, schedule: Q01DX009 (ip), vehicle: Klucel (hydroxypropylcellulose) (HPC)) 103 % of control; (dose: 200.0 mg/kg/injection, schedule: Q01DX009 (ip), vehicle: Klucel (hydroxypropylcellulose) (HPC)) 104 % of control and 110 % of control. Moreover, the T/C (dose: 400.0 mg/kg/injection, schedule: Q01DX009 (ip), vehicle: Klucel (hydroxypropylcellulose) (HPC)) is 109 % of control and 98 % of control.
As for `O=C(O)/C(=C\c1c(Cl)n(-c2ccccc2)c2ccccc12)NC(=O)c1ccccc1`, the T/C by setting is: under setting [5], 92 % of control; under setting [6], 88 % of control.
For `Nc1cc2c(cc1C=O)OCO2`, the T/C is 99 % of control (dose: 100.0 mg/kg/injection, schedule: Q04DX003 (ip), vehicle: Klucel (hydroxypropylcellulose) (HPC)); 93 % of control (dose: 200.0 mg/kg/injection, schedule: Q04DX003 (ip), vehicle: Klucel (hydroxypropylcellulose) (HPC)); 107 % of control (dose: 400.0 mg/kg/injection, schedule: Q04DX003 (ip), vehicle: Klucel (hydroxypropylcellulose) (HPC)).
In the case of `Clc1ccc2nc(Cl)c3ccccc3c2c1`, the T/C is, setting by setting: (dose: 0.78 mg/kg/injection, schedule: Q01DX009 (ip), vehicle: Klucel (hydroxypropylcellulose) (HPC)) 88 % of control and 93 % of control; (dose: 1.56 mg/kg/injection, schedule: Q01DX009 (ip), vehicle: Klucel (hydroxypropylcellulose) (HPC)) 87 % of control and 94 % of control; (dose: 3.13 mg/kg/injection, schedule: Q01DX009 (ip), vehicle: Klucel (hydroxypropylcellulose) (HPC)) 94 % of control; under setting [13], 120 % of control and 89 % of control and 95 % of control; under setting [8], 89 % of control; under setting [14], 87 % of control.
`CN1c2ccccc2C2=C(C(=O)CCS2)S1(=O)=O`: the T/C runs as follows: (dose: 50.0 mg/kg/injection, schedule: Q01DX005 (ip), vehicle: saline) 109 % of control; under setting [1], 100 % of control; under setting [2], 101 % of control.
With `O=C(Nc1cccc([N+](=O)[O-])c1)C1C(=O)N(c2cccc([N+](=O)[O-])c2)C(=O)/C1=N/O` (configuration not stated), the T/C was 99 % of control under setting [9], 95 % of control under setting [10] and 100 % of control under setting [11].
Consider `CC(/C=C/c1ccccc1)=N\NC(=O)c1ccccc1`, for which the T/C runs as follows: (dose: 6.25 mg/kg/injection, schedule: Q01DX005 (ip), vehicle: Klucel (hydroxypropylcellulose) (HPC)) 108 % of control; (dose: 12.5 mg/kg/injection, schedule: Q01DX005 (ip), vehicle: Klucel (hydroxypropylcellulose) (HPC)) 97 % of control; (dose: 25.0 mg/kg/injection, schedule: Q01DX005 (ip), vehicle: Klucel (hydroxypropylcellulose) (HPC)) 100 % of control and 108 % of control and 96 % of control; under setting [12], 112 % of control.

Source of the values: PubChem BioAssay AID330 (DTP/NCI, 2004).
